The nature of this data set: physchem. The settings on record: 25 °C, organic solvent or mixture, thermodynamic from solid.

In brackets after ≈: the same amount, converted by molar mass.

By solubility is commonly meant the dissolved amount per volume that the medium holds.

Procedure: The saturation solubility of acitretin was determined by adding an excess amount of acitretin in a conical flask containing a mixture of diethylene glycol monoethyl ether, dimethyl isosorbide, and polysorbate 80, present in a w/w ratio of 3.3:24.1:1. The mixture was kept in a shaking water bath for 24 hours at 25° C.

On to `COc1cc(C)c(/C=C/C(C)=C/C=C/C(C)=C/C(=O)O)c(C)c1C` [acitretin, all-trans-9-(4-methoxy-2,3,6-trimethylphenyl)-3,7-dimethyl-2,4,6,8-nonatetraenoic acid], for which the solubility at 24 h is 2500 µg/mL (≈ 7.66 mM).

For the origin of these results see US10342774B2, “Topical pharmaceutical composition of acitretin” (priority 2013, dated 2019).
